Measurements published in patent US20220064214A1, “NOVEL PEPTIDES AND USES THEREOF” (CENNA BIOSCIENCES INC., priority 2019, published 2022).
Several values for one entry are separate records, joined by “and”; a condition that tells them apart may be missing. Equal entries are not always repeated. Marks after values point to notes of the source that are not given here. Ends that are not written are not given here.

Columns and labels:
[1] = Pharmacokinetics study in rats, plasma; format: in vivo; settings: rat; for plasma concentration: individual rats
Method: (§1) An in-vivo study was carried out in rats to determine the pharmacokinetics (PK) of peptides P8, 8M1D and 8M2D in plasma and CSF. Each peptide was assessed through two dosage routes, intravenous (IV) and subcutaneous (SC). Three rats were assigned to each dose group with each peptide. Total of twelve rats per peptide were used.
(§2) Blood was collected through jugular vein cannulas, and the samples were collected into tubes with K2EDTA. After centrifuging at a temperature of 2 to 8° C. at 4,000×g for 5 minutes, the resulting plasma was split into equal aliquots, frozen, and stored at −60 to −80° C. One aliquot was for PK analysis and the other was for Aβ analysis (see Example 4).

[2] = Pharmacokinetics study in rats, CSF; format: in vivo; design: CSF concentration, Mean IV / CSF concentration, Mean SC: unit not given here; settings: rat; for CSF concentration, Mean IV: 10 mg/kg IV; for CSF concentration, Mean SC: 10 mg/kg SC
Method: as §1
CSF collection was performed by first anesthetizing animals at specified time points (see Table 5) with a mixture of 80 mg/kg ketamine and 8 mg/kg xylazine. The depth of anesthesia was monitored by toe pinches. CSF was collected via the cisterna magna (˜0.05 mL), and it was split into equal aliquots, frozen, and stored at −60 to −80° C.

[3] = test system: Aβ40; experiment: Efficacy in reducing Aβ40 in rat plasma (ELISA); format: in vivo; settings: 10 mg/kg SC; for reduction in Aβ40: rat plasma; for Percent Decrease in Aβ 40 in Rat Plasma: mean of 3 rats, negative = decrease
Method: as §2
Rats (n=3 per peptide) were administered with P8, 8M1D, or 8M2D (10 mg/kg) subcutaneously, and plasma were collected at 0, 6, 12, and 24 h after dosing and Aβ40 analysis was carried out by ELISA (Invitrogen).

[4] = test system: Aβ; experiment: Reduction of Aβ in retinal cells differentiated from iPSC derived from Alzheimer's disease patients; format: cell-based
Text: The accumulation of Aβ in the retina was studied in this example. Retinal cells were differentiated from induced pluripotent stem (iPSC) cells derived from Alzheimer's disease patients.

[5] = Delivery to brain in transgenic mice (brain concentrations); format: in vivo; settings: SC administration
Method: Critical to the development of any therapeutic for diseases like AD is the requirement that it can be delivered to the brain. Delivery to brain and efficacy of P8 and 8M2D in reducing Aß was analyzed in the transgenic mice described in Section 6.3 above. […]

- time after dosing at which detectable in plasma ([1]; 10 mg/kg IV and SC): ≤ 2 h
- plasma concentration ([1]; 10 mg/kg IV, 0 hr (pre-dose)): BQL
- plasma concentration ([1]; 10 mg/kg IV, 0.167 hr, 10 mg/kg): 9,770 and 12,800 ^a and 11,800 ^a
- plasma concentration ([1]; 10 mg/kg IV, 0.5 hr, 10 mg/kg, in ng/mL (unit assumed)): 2,340 and 2,080 and 2,710
- plasma concentration ([1]; 10 mg/kg IV, 1 hr, 10 mg/kg, in ng/mL (unit assumed)): 257 and 219 and 189
- plasma concentration ([1]; 10 mg/kg IV, 2 hr, 10 mg/kg, in ng/mL (unit assumed)): 26.3 and 22.7 and 18.9
- plasma concentration ([1]; 10 mg/kg IV, 4 hr, 10 mg/kg): 3.23 ^b and 3.18 ^b and 2.89 ^b
- plasma concentration ([1]; 10 mg/kg IV, 6 hr, 10 mg/kg): 1.07 ^b and 0.794 ^b
- plasma concentration ([1]; 10 mg/kg IV, 8 hr): BQL
- plasma concentration ([1]; 10 mg/kg IV, 12 hr): BQL
- plasma concentration ([1]; 10 mg/kg IV, 24 hr): BQL
- plasma concentration ([1]; 10 mg/kg SC, 0 hr (pre-dose)): BQL
- plasma concentration ([1]; 10 mg/kg SC, 0.167 hr, 10 mg/kg): 5,610 and 14,400 ^a and 11,900 ^a
- plasma concentration ([1]; 10 mg/kg SC, 0.5 hr, 10 mg/kg, in ng/mL (unit assumed)): 3,030 and 7,010 and 7,250
- plasma concentration ([1]; 10 mg/kg SC, 1 hr, 10 mg/kg, in ng/mL (unit assumed)): 670 and 1,300 and 1,970
- plasma concentration ([1]; 10 mg/kg SC, 2 hr, 10 mg/kg, in ng/mL (unit assumed)): 105 and 191 and 245
- plasma concentration ([1]; 10 mg/kg SC, 4 hr, 10 mg/kg): 5.44 ^b and 9.41 ^b and 20.7
- plasma concentration ([1]; 10 mg/kg SC, 6 hr, 10 mg/kg): 1.18 ^b and 4.35 ^b and 9.33 ^b
- plasma concentration ([1]; 10 mg/kg SC, 8 hr, 10 mg/kg): BQL and 1.32 ^b and 1.51 ^b
- plasma concentration ([1]; 10 mg/kg SC, 12 hr, 10 mg/kg): BQL (2×) and 0.900 ^b
- plasma concentration ([1]; 10 mg/kg SC, 24 hr): BQL
- time after dosing at which detectable in CSF ([2]; 10 mg/kg IV and SC): ≤ 2 h
- CSF concentration, Mean IV ([2]; 0 hr): 0
- CSF concentration, Mean IV ([2]; 0.5 hr): 42.4
- CSF concentration, Mean IV ([2]; 1 hr): 14.2
- CSF concentration, Mean IV ([2]; 2 hr): 4.89
- CSF concentration, Mean IV ([2]; 4 hr): 0
- CSF concentration, Mean IV ([2]; 8 hr): 0
- CSF concentration, Mean IV ([2]; 12 hr): 0
- CSF concentration, Mean IV ([2]; 24 hr): 0
- CSF concentration, Mean SC ([2]; 0 hr): 0
- CSF concentration, Mean SC ([2]; 0.5 hr): 79.4
- CSF concentration, Mean SC ([2]; 1 hr): 19.3
- CSF concentration, Mean SC ([2]; 2 hr): 23.3
- CSF concentration, Mean SC ([2]; 4 hr): 0
- CSF concentration, Mean SC ([2]; 8 hr): 0
- CSF concentration, Mean SC ([2]; 12 hr): 0
- CSF concentration, Mean SC ([2]; 24 hr): 0
Substance: DEEEDEEL-OH [P8, DEEEDEEL, reference compound]
- reduction in Aβ40 ([3]; 12 hr post dosing): about 22%
- reduction in Aβ40 ([3]; 24 h post dosing): about 13%
- Percent Decrease in Aβ 40 in Rat Plasma ([3]; 0 h): 0.00%
- Percent Decrease in Aβ 40 in Rat Plasma ([3]; 6 h): −18.13%
- Percent Decrease in Aβ 40 in Rat Plasma ([3]; 12 h): −22.70%
- Percent Decrease in Aβ 40 in Rat Plasma ([3]; 24 h): −13.22%
- production of Aβ in retinal cells in the presence of the peptide (in words) [4]: reduced
- delivery to the APPTg mouse brain (in words) [5]: in sufficient amounts to reduce Aß in the brain
